Patent publication US6503749B2 (Aventis Pharma S.A., priority 1998, dated 2003)

biological target: T1, APAT (acetyl-coenzyme A pregnenolone acetyltransferase) (Saccharomyces cerevisiae, UniProt P53296); test: Test of APAT enzyme activity (semi-purified APAT; substrate specificity and inhibition); format: biochemical, S. cerevisiae; conditions: 30 μM of each steroid tested and 100 μM of [3H]acetyl-CoA; semi-purified APAT
T1 construct: the semi-purified APAT transfers the acetate on 3β-ol, delta^4 or delta^5-steroids; endogenous in cells; host or cells: S. cerevisiae strain TGY73.4; endogenous enzyme purified in house from cell lysate (ZnCl2 precipitation, DEAE-Sephacel, Phenyl-Sepharose, Q-Sepharose, cholate-Sepharose)
T1 sequence (P53296 whole entry): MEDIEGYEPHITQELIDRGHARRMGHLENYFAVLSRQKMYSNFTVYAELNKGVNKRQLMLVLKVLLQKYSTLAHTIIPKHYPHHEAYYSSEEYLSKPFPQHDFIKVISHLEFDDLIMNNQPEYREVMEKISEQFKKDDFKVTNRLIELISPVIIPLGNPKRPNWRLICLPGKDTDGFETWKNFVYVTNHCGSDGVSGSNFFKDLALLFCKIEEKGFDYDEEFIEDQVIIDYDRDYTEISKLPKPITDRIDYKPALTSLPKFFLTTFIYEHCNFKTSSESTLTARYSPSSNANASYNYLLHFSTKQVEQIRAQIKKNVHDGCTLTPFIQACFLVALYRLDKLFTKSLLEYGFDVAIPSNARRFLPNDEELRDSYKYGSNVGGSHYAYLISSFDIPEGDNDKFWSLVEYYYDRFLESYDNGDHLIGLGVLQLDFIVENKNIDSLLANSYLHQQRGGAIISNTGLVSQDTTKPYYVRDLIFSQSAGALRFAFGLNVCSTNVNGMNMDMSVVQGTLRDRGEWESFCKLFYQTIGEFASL
Description: The pregnenolone is added in solution in 2 μl of tyloxapol (Sigma)/ethanol mixture (1:1) in a potassium phosphate buffer (20 mM) at pH 7.0. After incubation for 15 minutes at 30° C., the reaction is stopped by adding 2 ml of dichloromethane.
The steroids are extracted with dichloromethane, then separated by reversed-phase high-performance liquid chromatography (hereinafter: RP-HPLC) in isocratic elution conditions with acetonitrile in an Ultrasphere ODS column (Beckman) at 45° C. on an HP 1090 chromatograph (Hewlett-Packard) connected to a FLO-One 500 radiodetector (Packard) which permits measurement of the amount of pregnenolone [^3H]acetate formed.
One APAT unit is defined as the quantity of enzyme that produces 1 nmol of pregnenolone acetate per minute at 30° C., in the conditions described above.

| SMILES | Relative activity (%), Substrate a) [%] |
| --- | --- |
| C[C@]12CC[C@@H]3c4ccc(O)cc4CC[C@H]3[C@@H]1CC[C@@H]2O [17β-oestradiol] | 5 |
| CC(=O)[C@H]1CC[C@H]2[C@@H]3CC[C@@H]4C[C@@H](O)CC[C@]4(C)[C@H]3CC[C@]12C [5β-pregnan-3βol-20-one] | 1.8 |
| CC(=O)[C@H]1CC[C@H]2[C@@H]3CC=C4C[C@@H](O)CC[C@]4(C)[C@H]3CC[C@]12C [Pregnenolone] | 100 |
| C[C@]12CC[C@H](O)CC1=CC[C@@H]1[C@@H]2CC[C@]2(C)C(=O)CC[C@@H]12 [DHEA, dehydroepiandrosterone] | 104 |
| CC(=O)[C@H]1CC[C@H]2[C@@H]3CCC4=C[C@@H](O)CC[C@]4(C)[C@H]3CC[C@]12C [4-pregnen-3βol-20-one] | 70 |
| CC(C)CCC[C@@H](C)[C@H]1CC[C@H]2[C@@H]3CC=C4C[C@@H](O)CC[C@]4(C)[C@H]3CC[C@]12C [cholesterol] | 0.6 |
| C[C@]12CC[C@@H]3c4ccc(O)cc4CC[C@H]3[C@@H]1CCC2=O [oestrone] | 2.5 |
| CC(C)[C@@H](C)/C=C/[C@@H](C)[C@H]1CC[C@H]2C3=CC=C4C[C@@H](O)CC[C@]4(C)[C@H]3CC[C@]12C [ergosterol] | 0.4 |
| CC(=O)[C@@]1(O)CC[C@H]2[C@@H]3CC=C4C[C@@H](O)CC[C@]4(C)[C@H]3CC[C@@]21C [17α-OH pregnenolone, 17α-hydroxypregnenolone] | 89 |

same assay, conditions: 100 μM of each acyl donor and 30 μM of [3H]pregnenolone; semi-purified APAT

| SMILES | Relative activity (%), Substrate b) |
| --- | --- |
| CCCCCCCC/C=C\CCCCCCCC(=O)SCCNC(=O)CCNC(=O)[C@H](O)C(C)(C)COP(=O)(O)OP(=O)(O)OC[C@H]1O[C@@H](n2cnc3c(N)ncnc32)[C@H](O)[C@@H]1OP(=O)(O)O [oleoyl-CoA] | not detected |
| CCCC(=O)SCCNC(=O)CCNC(=O)[C@H](O)C(C)(C)COP(=O)(O)OP(=O)(O)OC[C@H]1O[C@@H](n2cnc3c(N)ncnc32)[C@H](O)[C@@H]1OP(=O)(O)O [butyryl-CoA] | 16% |
| CCCCCC(=O)SCCNC(=O)CCNC(=O)[C@H](O)C(C)(C)COP(=O)(O)OP(=O)(O)OC[C@H]1O[C@@H](n2cnc3c(N)ncnc32)[C@H](O)[C@@H]1OP(=O)(O)O [hexanoyl-CoA] | 18% |
| CCC(=O)SCCNC(=O)CCNC(=O)[C@H](O)C(C)(C)COP(=O)(O)OP(=O)(O)OC[C@H]1O[C@@H](n2cnc3c(N)ncnc32)[C@H](O)[C@@H]1OP(=O)(O)O [propionyl-CoA] | 33% |

same assay, conditions: reagents of sulfhydryl groups

| SMILES | Inhibition of APAT activity |
| --- | --- |
| CCN1C(=O)C=CC1=O [NEM] | strongly inhibited |
| O=C(O)c1cc(SSc2ccc([N+](=O)[O-])c(C(=O)O)c2)ccc1[N+](=O)[O-] [DTNB] | strongly inhibited |

same assay, conditions: zinc chloride 1 mM

| SMILES | Inhibition of APAT activity |
| --- | --- |
| [Cl-].[Cl-].[Zn+2] [zinc chloride] | complete |
